The target in assay [1] is T1, EP4 (Homo sapiens, UniProt P35408). The experiment in a line: cAMP assay, EP4. It is filed as cell-based. The arrangement: expressed in transfected cells; host or cells: HEK-EBNA cells. As to conditions: HEK-EBNA cells expressing EP4. As to the method: (§1) A 384-well drug plate was prepared to contain 6 test compounds, PGE2 and cAMP in 16 serial dilutions in triplicate, using a Biomek station. HEK-EBNA cells expressing a target PG receptor subtype (EP2 or EP4) were suspended in a stimulation buffer (HBSS, 0.1% BSA, 0.5 mM IBMX and 5 mM HEPES, pH 7.4) in a density of 10^4 cells/5 μL. The reaction was initiated by mixing 5 μL drug dilutions with 5 μL of HEK-EBNA cells in a well, carried out for 30 min at room temperature, and followed by the addition of 5 μL anti-cAMP acceptor beads in the control buffer with Tween-20 (25 mM NaCl, 0.03% Tween-20, 5 mM HEPES, pH 7.4). After 30 min in the dark at room temperature, the mixtures were incubated with 15 μL biotinylated-cAMP/strepavidin donor beads in Lysis/Detection buffer (0.1% BSA, 0.3% Tween-20 and 5 mM HEPES, pH 7.4) for 45 min at the room temperature. Fluorescence changes were read using a Fusion-alpha HT microplate reader.
T1 sequence (P35408 whole entry): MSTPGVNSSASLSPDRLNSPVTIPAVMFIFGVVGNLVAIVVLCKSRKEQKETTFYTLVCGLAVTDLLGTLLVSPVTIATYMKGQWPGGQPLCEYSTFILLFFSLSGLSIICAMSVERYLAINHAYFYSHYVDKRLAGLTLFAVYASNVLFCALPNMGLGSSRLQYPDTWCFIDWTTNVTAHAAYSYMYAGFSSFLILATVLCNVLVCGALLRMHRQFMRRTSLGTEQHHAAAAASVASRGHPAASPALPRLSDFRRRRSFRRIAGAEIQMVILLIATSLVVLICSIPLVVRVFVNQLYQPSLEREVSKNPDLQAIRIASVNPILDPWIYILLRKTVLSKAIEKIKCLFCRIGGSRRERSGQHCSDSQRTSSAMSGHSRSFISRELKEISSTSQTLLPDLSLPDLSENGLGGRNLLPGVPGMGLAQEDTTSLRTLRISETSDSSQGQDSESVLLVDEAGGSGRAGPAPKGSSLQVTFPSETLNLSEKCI

Assay [2] addresses T1, EP4. The experiment in a line: Radioligand binding, EP4. The arrangement: expressed in transfected cells; membrane fraction. Conditions: [3H]PGE2 competition. As to the method:
(§2) Data from running binding and activity studies on the compounds of the invention were carried out as described in U.S. Pat. No. 7,427,685, the contents of which are incorporated herein by reference.
(§3) Cells Stably Expressing EP1, EP2, EP4, and FP Receptors
(§4) HEK-293 cells stably expressing the human or feline FP receptor, or EP1, EP2, or EP4 receptors were washed with TME buffer, scraped from the bottom of the flasks, and homogenized for 30 sec using a Brinkman PT 10/35 polytron. TME buffer was added to achieve a final 40 ml volume in the centrifuge tubes (the composition of TME is 100 mM TRIS base, 20 mM MgCl2, […]; ION HCl is added to achieve a pH of 7.4).
(§5) The cell homogenate was centrifuged at 19000 rpm for 20 min at 4° C. using a Beckman Ti-60 rotor. The resultant pellet was resuspended in TME buffer to give a final 1 mg/ml protein concentration, as determined by Biorad assay. Radioligand binding competition assays vs. [^3H-]17-phenyl PGF2α (5 nM) were performed in a 100 μl volume for 60 min. Binding reactions were started by adding plasma membrane fraction. The reaction was terminated by the addition of 4 ml ice-cold TRIS-HCl buffer and rapid filtration through glass fiber GF/B filters using a Brandel cell harvester. The filters were washed 3 times with ice-cold buffer and oven dried for one hour.
(§6) [^3H-] PGE2 (specific activity 180 Ci mmol) was used as the radio ligand for EP receptors. [^3H] 17-phenyl PGF2α was employed for FP receptor binding studies. Binding studies employing EP1, EP2, EP4 and FP receptors were performed in duplicate in at least three separate experiments. A 200 μl assay volume was used. Incubations were for 60 min at 25° C. and were terminated by the addition of 4 ml of ice-cold 50 mM TRIS-HCl, followed by rapid filtration through Whatman GF/B filters and three additional 4 ml washes in a cell harvester (Brandel). Competition studies were performed using a final concentration of 5 nM [^3H]-PGE2, or 5 nM [^3H] 17-phenyl PGF2α and non-specific binding determined with 10^−5M of unlabeled PGE2, or 17-phenyl PGF2α, according to receptor subtype studied.

Assay [3] concerns the target T2, EP2 (Homo sapiens, UniProt P43116). The experiment in a line: Ki competition binding, EP2. Details: expressed in transfected cells. Conditions: [3H]PGE2 competition; NA = no activity. As to the method: as §2
Competition binding experiments were performed in a medium containing Hank's balanced salt solution, Hepes 20 mM, pH 7.3, membranes (˜60 μg protein) or 2×10^5 cells from HEK 293 cells stably expressing human EP2 receptors, [^3H]PGE2 (10 nM) and various concentrations of test compounds in a total volume of 300 μl. Reaction mixtures were incubated at 23° C. for 60 min, and were filtered over Whatman GF IB filters under vacuum. Filters were washed three times with 5 ml ice-cold buffer containing 50 mM Tris/HCl (PH 7.3). Non-specific binding was estimated in the presence of excess unlabeled PGE2 (10 μM). Binding data fitted to the binding model for a single class of binding sites, using nonlinear regression analysis. IC50 values thus obtained were converted to Ki using the equation of Ki=(IC50/(1+[L]/KD) where [L] represents PGE2 concentration (10 nM) and KD the dissociation constant for [^3H]PGE2 at human EP2 receptors (40 nM).
as §3, §4, §5, §6

The target of assay [4] is T2, EP2. The experiment in a line: cAMP assay, EP2. It counts as cell-based. Details: expressed in transfected cells; host or cells: HEK-EBNA cells. As to conditions: HEK-EBNA cells expressing EP2. As to the method:
as §1

T2 sequence (P43116 whole entry): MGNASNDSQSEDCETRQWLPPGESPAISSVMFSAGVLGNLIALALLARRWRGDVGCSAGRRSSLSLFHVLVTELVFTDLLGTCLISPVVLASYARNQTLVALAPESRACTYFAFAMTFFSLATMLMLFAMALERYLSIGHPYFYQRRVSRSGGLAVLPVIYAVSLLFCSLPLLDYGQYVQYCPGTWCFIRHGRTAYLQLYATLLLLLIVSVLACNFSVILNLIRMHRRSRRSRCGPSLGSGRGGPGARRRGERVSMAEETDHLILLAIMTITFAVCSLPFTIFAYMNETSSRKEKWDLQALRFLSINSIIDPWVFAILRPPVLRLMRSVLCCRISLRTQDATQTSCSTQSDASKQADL

On to `O=C(O)c1ccc(CNC(=O)C2CCCC2Cc2cccc(C(F)(F)F)c2)cc1` (single isomer, unassigned) [Example 5, 4-((2-(3-(Trifluoromethyl)benzyl)cyclopentanecarboxamido)methyl)benzoic Acid], for which the figures for the EC50 on EP4 [1] and at EP2 [4] were > 10000 nM and 13 nM, respectively. The Ki came to 8 nM on EP4 [2] and 154 nM at EP2 [3].
The corresponding values for `COc1cc(CC2CCCCC2C(=O)NCc2ccc(C(=O)O)cc2)cc(OC)c1` (single isomer, unassigned) [Example 9, 4-((2-(3,5-Dimethoxybenzyl)cyclohexanecarboxamido)methyl)benzoic Acid] are > 10000 nM, 389 nM, 2 nM and 2150 nM.
On to `COc1cc(CC2CCCCC2C(=O)NCc2ccc(C(=O)O)cc2)cc(OC)c1` (single isomer, unassigned) [Example 10, 4-((2-(3,5-Dimethoxybenzyl)cyclohexanecarboxamido)methyl)benzoic Acid], for which the EC50 is 0.2 nM at EP4 [1] and 25 nM on EP2 [4]. In addition, the results for the Ki on EP4 [2] and at EP2 [3] were 2 nM and 908 nM, respectively.
On the same counts, the results for `COc1cc(CC2CCCCCC2C(=O)NCc2ccc(C(=O)O)cc2)cc(OC)c1` (single isomer, unassigned) [Example 12, 4-((2-(3,5-Dimethoxybenzyl)cycloheptanecarboxamido)methyl)benzoic Acid] are > 10000 nM, 1310 nM, 9 nM and > 10000 nM.
The corresponding values for `COc1cc(CC2CCCCCC2C(=O)NCc2ccc(C(=O)O)cc2)cc(OC)c1` (single isomer, unassigned) [Example 13, 4-((2-(3,5-Dimethoxybenzyl)cycloheptanecarboxamido)methyl)benzoic Acid] are 0.2 nM, 573 nM, 2 nM and 6300 nM.
Turning to `COc1ccc(CC2CCCCC2C(=O)NCc2ccc(C(=O)O)cc2)cc1` (single isomer, unassigned) [Example 35, 4-((2-(4-Methoxybenzyl)cyclohexanecarboxamido)methyl)benzoic Acid], the EC50 on EP4 [1] is > 10000 nM. Also, the Ki at EP4 [2] is 86 nM; on EP2 [3] it was > 10000 nM.
`COc1cc(CC2=C(C(=O)NCc3ccc(C(=O)O)cc3)CCC2)cc(OC)c1` [Example 3, 4-((2-(3,5-Dimethoxybenzyl)cyclopent-1-enecarboxamido)methyl)benzoic Acid]: the half-maximal effective concentration (EC50) on EP4 [1] is 1 nM; on EP2 [4], 33 nM. Also, the Ki is 5 nM on EP4 [2] and 1120 nM at EP2 [3].
On the same counts, the results for `O=C(NCc1ccc(C(=O)O)cc1)C1=C(Cc2cccc(C(F)(F)F)c2)CCC1` [Example 4, 4-((2-(3-(Trifluoromethyl)benzyl)cyclopent-1-enecarboxamido)methyl)benzoic Acid] are > 10000 nM, 2 nM, 7 nM and 109 nM.
On the same counts, the results for `COc1cc(CC2=C(C(=O)NCc3ccc(C(=O)O)cc3)CCCC2)cc(OC)c1` [Example 8, 4-((2-(3,5-Dimethoxybenzyl)cyclohex-1-enecarboxamido)methyl)benzoic Acid] are 0.2 nM, 2 nM, 1 nM and 177 nM.
Take `COc1cccc(CC2=C(C(=O)NCc3ccc(C(=O)O)cc3)CCCC2)c1OC` [Example 14, 4-((2-(2,3-Dimethoxybenzyl)cyclohex-1-enecarboxamido)methyl)benzoic Acid]: the EC50 on EP4 [1] is > 10000 nM. Further, the inhibition constant (Ki) at EP4 [2] turned out to be 45 nM; on EP2 [3], 1190 nM.
The corresponding values for `COc1ccc(OC)c(CC2=C(C(=O)NCc3ccc(C(=O)O)cc3)CCCC2)c1` [Example 17, 4-((2-(2,5-Dimethoxybenzyl)cyclohex-1-enecarboxamido)methyl)benzoic Acid] are > 10000 nM, 8 nM and 403 nM.
On the same counts, the results for `COc1cc(C/C2=C(\C(=O)NCc3ccc(C(=O)O)cc3)CCCCCC2)cc(OC)c1` [Example 20, 4-((2-(3,5-Dimethoxybenzyl)cyclooct-1-enecarboxamido)methyl)benzoic Acid] are > 10000 nM, 0.2 nM and > 10000 nM.
On the same counts, the results for `O=C(NCc1ccc(C(=O)O)cc1)C1=C(Cc2ccccc2Cl)CCCC1` [Example 24, 4-((2-(2-Chlorobenzyl)cyclohex-1-enecarboxamido)methyl)benzoic Acid] are > 10000 nM, 4 nM and 83 nM.
Regarding `COc1cccc(CC2=C(C(=O)NCc3ccc(C(=O)O)cc3)CCCC2)c1` [Example 27, 4-((2-(3-Methoxybenzyl)cyclohex-1-enecarboxamido)methyl)benzoic Acid], the EC50 at EP4 [1] is > 10000 nM. Besides, the figures for the Ki on EP4 [2] and at EP2 [3] were 2 nM and 138 nM, respectively.
For the molecule `COc1ccccc1CC1=C(C(=O)NCc2ccc(C(=O)O)cc2)CCCC1` [Example 30, 4-((2-(2-Methoxybenzyl)cyclohex-1-enecarboxamido)methyl)benzoic Acid], the EC50 on EP4 [1] is > 10000 nM. Besides, the Ki at EP4 [2] worked out at 6 nM; at EP2 [3], 219 nM.
On the same counts, the results for `COc1ccc(CC2=C(C(=O)NCc3ccc(C(=O)O)cc3)CCCC2)cc1` [Example 33, 4-((2-(4-Methoxybenzyl)cyclohex-1-enecarboxamido)methyl)benzoic Acid] are > 10000 nM, 1 nM and 1140 nM.
